Patent US20240374560A1, “FIBER-ENHANCED LIPOSOME AND METHODS” (Vidya Herbs, Inc., priority 2023, published 2024)
Structures can show the parent of a compound that is named as a salt. Values belong to the compound of their own block, whether it stands above or below them.

How the values were obtained:
[1] = In vitro release study of berberine, dialysis set up; type: physicochemical; settings: after 6 h, pH 7.4
[2] = Pharmacokinetic study of berberine after single oral dose; type: in vivo, Wistar rats; settings: male, Wistar, berberine in rat plasma
[3] = In vitro release study of vitamin C, dialysis set up; type: physicochemical; settings: after 8 h, PBS pH 7.4, 37° C.
Experimental: The comparative in vitro release study of vitamin C encapsulated in the inventive liposome versus and non-encapsulated vitamin C (control) was performed using the dialysis set up. […] A weighed quantity of encapsulated vitamin C (50 mg) was suspended in 10 mL of PBS and transferred into the dialysis bag (donor compartment). […] A control experiment was performed simultaneously in which unencapsulated vitamin C solution was dialyzed. […] The absorbance of the samples was measured at 295 nm. The concentration of vitamin C in the samples was determined using a standard curve.

[4] = after 3 h; dialysis, PBS pH 7.4, 37° C.
Experimental: The comparative in vitro release study of caffeine encapsulated in the inventive liposome versus plain caffeine (control) was performed using a dialysis set up. Prior to the diffusion experiment, the cellulose acetate dialysis membrane (Sigma Aldrich, Molecular weight cut-off (MWCO) 12 kDa) was soaked in phosphate buffered saline (PBS, pH 7.4) for 12 h. A weighed quantity of liposomal caffeine (50 mg) was suspended in 10 mL of PBS and transferred into the dialysis bag (donor compartment). The dialysis bag was placed in a beaker containing 100 mL of PBS (receptor compartment). The setup was incubated at 120 rpm for 8 h in a 37° C. shaker incubator.
A control experiment was performed simultaneously in which a plain caffeine solution was dialyzed. A 1 mL aliquot of PBS in the receptor compartment was sampled at different time points and an equal quantity of fresh PBS was replaced in the compartment after each withdrawal. The caffeine content in the samples were quantified using HPLC.

in vivo = settings: male, Wistar, rat, plasma, po, 60 mg/kg
[5] = Pharmacokinetics of ursolic acid after single oral dose; settings: ursolic acid in rat plasma
[6] = In vitro release study of glutathione, dialysis set up; type: physicochemical; settings: after 7 h, pH 7.4
Experimental: The comparative in vitro release study of glutathione encapsulated in the inventive liposome and non-encapsulated glutathione (control) was performed using the dialysis set up. […] A control experiment was performed simultaneously in which the non-encapsulated glutathione solution was dialyzed. […] The concentration of glutathione in the samples was determined using the validated HPLC method.
The mobile phase consisted of 50 mM phosphate buffer. The injection volume was 5 μL. The detection was carried out at 230 nm.

[7] = Comparative oral bioavailability of vitamin C, crossover study in healthy volunteers; settings: human, in vivo
Experimental: The inventive liposome comprised at least 40% w/w Vitamin C.
A group of 12 healthy volunteers were screened on Visit 1 to confirm their eligibility. Subjects fulfilling the eligibility criteria were randomized into 1 of 2-treatment sequences on Visit 2. There was a washout period of 7 days each between the 2 dosing days. […] Subjects returned to the study center for the second period. On the morning of Day 1, in each period, subjects in a fasting state (at least 10 hours before dosing) received one 600 mg capsule orally of their assigned formulation (Table 2) as per randomization scheme, with 200±2 mL of water at room temperature. The study duration was approximately 12 days (2 dosing days and 1 washout period of 7±1 days). A total of 10 blood samples were collected in each of the two study periods. The pre-dose samples (2 mL) were collected within 1 hour before dosing. The post-dose samples (1×2 mL) were collected at 30 min, 60 min, 2, 3, 4, 5, 6, 8 and 12 hours after dosing in vacuum tubes containing K2 EDTA. All blood samples were collected from an ante-cubital vein or any suitable forearm vein using an indwelling cannula. Before each blood sample is drawn, 1 mL of blood was discarded so as to prevent the saline diluted blood and heparin from interfering with the analysis.
Plasma concentrations were measured using ultra performance liquid chromatographyelectrospray ionization-tandem mass spectrometry (UPLC-ESI-MS/MS), gas chromatography mass spectrometry (GC-MS/MS) and High-Performance Liquid Chromatography (HPLC). All the pharmacokinetic parameters were compared between the two treatment groups using Pair-t-test with 5% level of significance. All statistical analysis was performed using R statistical software version 4.2.1.

berberine cumulative release % [1]: 100%
AUC(0-t) ([2]; 320 mg/kg, single oral dose): 410 ± 40 ng·h/mL
Tmax ([2]; 320 mg/kg, single oral dose): 0.25 h
half-life ([2]; 320 mg/kg, single oral dose, read-out: t½ (converted)): 7.32 ± 0.61 h
Cmax ([2]; single oral dose (600 mg/kg encapsulated; 320 mg/kg berberine HCl)): 15.5 ± 9.66 ng/mL
Structure (SMILES): COc1ccc2cc3[n+](cc2c1OC)CCc1cc2c(cc1-3)OCO2 [Control (Unformulated), berberine HCl]

vitamin C released [3]: 67.54%
caffeine released [4]: 100%
AUC(0-t) (in vivo): 877 ± 44.6 ng·h/mL
Cmax (in vivo): 201 ± 42.4 ng/mL
Tmax (in vivo): 0.75 ± 0.35 h
half-life (in vivo): 4.49 ± 0.11 h
Kel [5]: 0.15 ± 0.004 h⁻¹
maximum plasma concentration of UA [5]: 201 ± 42.43 ng/mL
Kel ([5]; listed as control): 0.15 ± 0.004 h⁻¹
Structure (SMILES): C[C@H]1[C@H](C)CC[C@]2(C(=O)O)CC[C@]3(C)C(=CC[C@@H]4[C@@]5(C)CC[C@H](O)C(C)(C)[C@@H]5CC[C@]43C)[C@H]12 [Control, ursolic acid]

glutathione cumulative release % [6]: 96.86%
Structure (SMILES): N[C@@H](CCC(=O)N[C@@H](CS)C(=O)NCC(=O)O)C(=O)O [non-encapsulated glutathione, glutathione]

AUC(0-inf) [7]: 6260 ± 4560 ng·h/mL
AUC(0-t) [7]: 4130 ± 1740 ng·h/mL
Cmax [7]: 970 ng/mL
MRT [7]: 9.3 ± 8.42 h
Tmax [7]: 2.67 ± 1.07 h
Plasma concentration of vitamin C, Mean ([7]; 0.5 h): 219.99
Plasma concentration of vitamin C, Mean ([7]; 1 h): 502.39
Plasma concentration of vitamin C, Mean ([7]; 2 h): 728.44
Plasma concentration of vitamin C, Mean ([7]; 3 h): 680.46
Plasma concentration of vitamin C, Mean ([7]; 4 h): 456.28
Plasma concentration of vitamin C, Mean ([7]; 5 h): 405.53
Plasma concentration of vitamin C, Mean ([7]; 6 h): 338.54
Plasma concentration of vitamin C, Mean ([7]; 8 h): 219.14
Plasma concentration of vitamin C, Mean ([7]; 12 h): 162.08
Structure (SMILES): O=C1O[C@H]([C@@H](O)CO)C(O)=C1O [unformulated Vitamin C, vitamin C]
